Results reported in ChEMBL document CHEMBL5696442, “Discovery of type II inhibitors of TGFβ-activated kinase 1 (TAK1) and mitogen-activated protein kinase kinase kinase kinase 2 (MAP4K2)” (J Med Chem, 2015).

How the values were obtained:
Type in all cases: cell-based
[1] = biological target: T1, Serine/threonine-protein kinase 3 (Homo sapiens) (UniProt Q13188); experiment: Inhibition of MST2 Lys2 labeling site harbouring DIKAGNILLNTEGHAK in human A-375 cells at 0.05 uM by KiNativ Profiling analysis relative to control
T1 sequence (whole entry): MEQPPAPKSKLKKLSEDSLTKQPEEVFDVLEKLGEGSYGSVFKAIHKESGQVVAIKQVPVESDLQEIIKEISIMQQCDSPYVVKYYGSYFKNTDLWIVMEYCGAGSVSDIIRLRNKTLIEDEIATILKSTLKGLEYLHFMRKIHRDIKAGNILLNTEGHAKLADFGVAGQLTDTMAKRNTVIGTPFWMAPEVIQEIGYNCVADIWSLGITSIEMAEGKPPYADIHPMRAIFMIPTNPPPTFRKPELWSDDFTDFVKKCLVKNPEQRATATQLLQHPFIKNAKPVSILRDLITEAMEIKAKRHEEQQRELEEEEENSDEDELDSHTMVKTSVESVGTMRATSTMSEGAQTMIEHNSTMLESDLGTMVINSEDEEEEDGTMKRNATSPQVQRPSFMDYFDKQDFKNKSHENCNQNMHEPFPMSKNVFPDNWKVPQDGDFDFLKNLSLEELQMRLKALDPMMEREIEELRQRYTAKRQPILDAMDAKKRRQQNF

[2] = biological target: T2, Serine/threonine-protein kinase TBK1 (Homo sapiens) (UniProt Q9UHD2); experiment: Inhibition of TBK1 Lys1 labeling site in human A-375 cells at 0.05 uM by KiNativ Profiling analysis relative to control
T2 sequence (whole entry): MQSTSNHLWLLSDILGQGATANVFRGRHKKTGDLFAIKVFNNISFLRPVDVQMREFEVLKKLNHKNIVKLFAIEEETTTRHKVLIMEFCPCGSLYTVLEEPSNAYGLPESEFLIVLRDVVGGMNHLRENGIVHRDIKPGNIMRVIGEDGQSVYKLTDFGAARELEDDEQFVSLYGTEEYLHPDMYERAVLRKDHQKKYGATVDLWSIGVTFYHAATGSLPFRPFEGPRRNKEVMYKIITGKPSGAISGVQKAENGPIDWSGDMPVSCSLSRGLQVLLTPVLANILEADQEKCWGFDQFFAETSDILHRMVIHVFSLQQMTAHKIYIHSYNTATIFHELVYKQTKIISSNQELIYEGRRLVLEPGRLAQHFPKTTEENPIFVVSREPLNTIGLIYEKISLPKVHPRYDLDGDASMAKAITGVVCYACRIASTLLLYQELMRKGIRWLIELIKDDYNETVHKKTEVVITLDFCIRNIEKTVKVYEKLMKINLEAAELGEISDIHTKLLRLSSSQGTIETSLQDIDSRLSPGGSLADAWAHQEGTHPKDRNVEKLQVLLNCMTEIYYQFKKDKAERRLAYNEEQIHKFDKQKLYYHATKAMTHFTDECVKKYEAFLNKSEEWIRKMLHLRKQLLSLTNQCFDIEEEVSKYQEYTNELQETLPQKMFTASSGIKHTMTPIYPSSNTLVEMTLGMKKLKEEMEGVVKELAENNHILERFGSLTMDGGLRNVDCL

[3] = biological target: T3, NUAK family SNF1-like kinase 2 (Homo sapiens) (UniProt Q9H093); experiment: Inhibition of NuaK2 Lys1 labeling site in human A-375 cells at 0.5 uM by KiNativ Profiling analysis relative to control
T3 sequence (whole entry): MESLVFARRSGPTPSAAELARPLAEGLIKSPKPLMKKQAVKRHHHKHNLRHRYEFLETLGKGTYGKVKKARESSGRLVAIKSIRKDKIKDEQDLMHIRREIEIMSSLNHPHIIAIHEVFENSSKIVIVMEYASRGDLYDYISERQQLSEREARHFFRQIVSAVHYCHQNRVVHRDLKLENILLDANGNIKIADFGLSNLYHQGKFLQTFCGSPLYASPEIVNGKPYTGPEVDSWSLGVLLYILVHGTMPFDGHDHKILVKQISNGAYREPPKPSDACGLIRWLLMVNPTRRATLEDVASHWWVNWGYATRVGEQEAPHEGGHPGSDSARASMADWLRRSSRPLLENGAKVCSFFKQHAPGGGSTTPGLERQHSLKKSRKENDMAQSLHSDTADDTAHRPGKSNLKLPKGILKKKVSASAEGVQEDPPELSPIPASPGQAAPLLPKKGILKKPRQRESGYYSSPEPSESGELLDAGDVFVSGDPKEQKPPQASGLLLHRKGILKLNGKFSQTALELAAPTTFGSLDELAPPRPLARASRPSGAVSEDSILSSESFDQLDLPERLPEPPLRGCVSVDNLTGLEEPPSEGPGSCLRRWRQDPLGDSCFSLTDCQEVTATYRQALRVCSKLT

[4] = biological target: T4, Serine/threonine-protein kinase Nek9 (Homo sapiens) (UniProt Q8TD19); experiment: Inhibition of NEK9 Lys2 labeling site in human A-375 cells at 5 uM by KiNativ Profiling analysis relative to control
T4 sequence (whole entry): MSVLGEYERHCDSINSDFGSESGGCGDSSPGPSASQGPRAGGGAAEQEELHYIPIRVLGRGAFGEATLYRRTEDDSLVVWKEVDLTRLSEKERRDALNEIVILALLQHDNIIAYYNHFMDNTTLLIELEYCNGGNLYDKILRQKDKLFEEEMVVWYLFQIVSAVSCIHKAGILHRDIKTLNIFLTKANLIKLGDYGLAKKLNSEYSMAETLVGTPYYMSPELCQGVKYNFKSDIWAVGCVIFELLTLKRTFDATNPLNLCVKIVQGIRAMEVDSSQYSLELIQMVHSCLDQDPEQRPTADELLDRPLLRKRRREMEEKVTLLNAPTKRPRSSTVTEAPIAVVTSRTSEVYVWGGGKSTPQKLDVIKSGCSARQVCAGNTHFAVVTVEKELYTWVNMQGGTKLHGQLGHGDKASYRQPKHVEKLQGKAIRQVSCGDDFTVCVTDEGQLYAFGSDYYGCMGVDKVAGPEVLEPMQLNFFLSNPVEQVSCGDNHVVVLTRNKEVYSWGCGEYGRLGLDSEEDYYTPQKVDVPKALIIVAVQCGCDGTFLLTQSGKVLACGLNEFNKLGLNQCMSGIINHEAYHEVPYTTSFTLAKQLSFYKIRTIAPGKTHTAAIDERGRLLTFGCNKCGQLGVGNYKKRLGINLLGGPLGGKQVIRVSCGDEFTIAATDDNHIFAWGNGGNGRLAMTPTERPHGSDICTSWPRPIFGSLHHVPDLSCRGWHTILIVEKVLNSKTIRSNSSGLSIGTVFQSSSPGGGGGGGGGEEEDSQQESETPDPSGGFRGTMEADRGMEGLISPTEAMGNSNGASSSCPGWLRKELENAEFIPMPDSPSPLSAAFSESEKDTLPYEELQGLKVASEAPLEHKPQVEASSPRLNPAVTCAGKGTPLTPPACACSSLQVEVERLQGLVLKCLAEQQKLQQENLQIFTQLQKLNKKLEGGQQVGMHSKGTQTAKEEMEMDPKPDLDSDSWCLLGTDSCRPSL

SMILES	inhibition [1] [%]	inhibition [2] [%]	inhibition [3] [%]	inhibition [4] [%]
CCN1CCN(Cc2ccc(NC(=O)c3ccc(C)c(/C=C/c4cnc5[nH]ccc5c4OC)c3)cc2C(F)(F)F)CC1	-7	33.4	6.4	14.7
CCN1CCN(Cc2ccc(NC(=O)c3ccc(C)c(Oc4ccnc5[nH]ccc45)c3)cc2C(F)(F)F)CC1	4.7	16.7	9.4	3.2
